From the CheMixHub viscosity set

Assay: xn = mol fraction of the nth substance listed

CCCCn1cc[n+](C)c1.F[P-](F)(F)(F)(F)F + NCCO
viscosity [mPa·s], 101 kPa
Details | x2 = 0.1185 | x2 = 0.2113 | x2 = 0.3052 | x2 = 0.4282 | x2 = 0.4918 | x2 = 0.6161 | x2 = 0.6984 | x2 = 0.8022 | x2 = 0.9028
293.15 K | – | 124.5 | 102.5 | 78.15 | 68.3 | 51.7 | 43.55 | 34.1 | 27.33
298.15 K | – | 92.28 | 76.44 | 58.74 | 51.63 | 39.18 | 33.39 | 26.29 | –
303.15 K | – | – | 57.84 | 44.92 | 39.41 | 30.4 | 25.89 | – | –
308.15 K | 67.48 | 54.83 | 44.08 | 34.54 | 30.31 | – | – | – | –
313.15 K | – | 42.41 | 34.89 | 27.36 | – | – | – | – | –
318.15 K | 42.44 | 33.84 | 28.14 | – | – | – | – | – | 9.08
323.15 K | 34.88 | 28.08 | – | – | – | – | – | 9.09 | 7.67

CCc1ccccc1 + Cc1ccccc1
Details | viscosity [mPa·s]
293.15 K, 101.33 kPa, x2 = 0.1809 | 0.652
293.15 K, 101.33 kPa, x2 = 0.3695 | 0.636
293.15 K, 101.33 kPa, x2 = 0.5187 | 0.623
293.15 K, 101.33 kPa, x2 = 0.6606 | 0.611
293.15 K, 101.33 kPa, x2 = 0.8474 | 0.597
298 K, 101 kPa, x2 = 0.1175 | 0.6248
298 K, 101 kPa, x2 = 0.2654 | 0.6174
298 K, 101 kPa, x2 = 0.4661 | 0.6001
298 K, 101 kPa, x2 = 0.5586 | 0.5944
298 K, 101 kPa, x2 = 0.6327 | 0.5864
298 K, 101 kPa, x2 = 0.8164 | 0.5675
298 K, 101 kPa, x2 = 0.9082 | 0.5576
298 K, 101 kPa, x2 = 0.9658 | 0.5598
298.15 K, 101.3 kPa, x2 = 0.1427 | 0.6196
298.15 K, 101.3 kPa, x2 = 0.2444 | 0.609
298.15 K, 101.3 kPa, x2 = 0.3777 | 0.5992
298.15 K, 101.3 kPa, x2 = 0.4928 | 0.5905
298.15 K, 101.3 kPa, x2 = 0.5425 | 0.5867
298.15 K, 101.3 kPa, x2 = 0.6355 | 0.5789
298.15 K, 101.3 kPa, x2 = 0.7353 | 0.5716
298.15 K, 101.3 kPa, x2 = 0.8573 | 0.5614
298.15 K, 101.3 kPa, x2 = 0.9453 | 0.5549
298.15 K, 101.33 kPa, x2 = 0.1308 | 0.623
298.15 K, 101.33 kPa, x2 = 0.2529 | 0.616
298.15 K, 101.33 kPa, x2 = 0.3685 | 0.604
298.15 K, 101.33 kPa, x2 = 0.4784 | 0.592
298.15 K, 101.33 kPa, x2 = 0.6663 | 0.58
298.15 K, 101.33 kPa, x2 = 0.8024 | 0.568
298.15 K, 101.33 kPa, x2 = 0.9209 | 0.56
303.15 K, 101.3 kPa, x2 = 0.0366 | 0.5902
303.15 K, 101.3 kPa, x2 = 0.1427 | 0.5808
303.15 K, 101.3 kPa, x2 = 0.2444 | 0.5729
303.15 K, 101.3 kPa, x2 = 0.3777 | 0.5639
303.15 K, 101.3 kPa, x2 = 0.4928 | 0.5556
303.15 K, 101.3 kPa, x2 = 0.5425 | 0.5522
303.15 K, 101.3 kPa, x2 = 0.6355 | 0.545
303.15 K, 101.3 kPa, x2 = 0.7353 | 0.5371
303.15 K, 101.3 kPa, x2 = 0.8573 | 0.528
303.15 K, 101.3 kPa, x2 = 0.9453 | 0.5223
303.15 K, 101.33 kPa, x2 = 0.1809 | 0.581
303.15 K, 101.33 kPa, x2 = 0.3695 | 0.565
303.15 K, 101.33 kPa, x2 = 0.5187 | 0.554
303.15 K, 101.33 kPa, x2 = 0.6606 | 0.546
303.15 K, 101.33 kPa, x2 = 0.8474 | 0.533
313.15 K, 101.33 kPa, x2 = 0.1809 | 0.52
313.15 K, 101.33 kPa, x2 = 0.3695 | 0.505
313.15 K, 101.33 kPa, x2 = 0.5187 | 0.496
313.15 K, 101.33 kPa, x2 = 0.6606 | 0.49
313.15 K, 101.33 kPa, x2 = 0.8474 | 0.479
323.15 K, 101.33 kPa, x2 = 0.1809 | 0.46
323.15 K, 101.33 kPa, x2 = 0.3695 | 0.459
323.15 K, 101.33 kPa, x2 = 0.5187 | 0.447
323.15 K, 101.33 kPa, x2 = 0.6606 | 0.443
323.15 K, 101.33 kPa, x2 = 0.8474 | 0.43

Clc1ccccc1 + CCC(C)=O
303.15 K, 101 kPa
Details | viscosity [mPa·s]
x2 = 0.0982 | 0.686
x2 = 0.247 | 0.636
x2 = 0.3771 | 0.593
x2 = 0.5481 | 0.541
x2 = 0.6776 | 0.499
x2 = 0.8508 | 0.482

COCCOCCOCCOCCOC + COC(=O)OC
298.15 K, 101.33 kPa
Details | viscosity [mPa·s]
x1 = 0.0013 | 0.595
x1 = 0.0051 | 0.603
x1 = 0.0117 | 0.623
x1 = 0.0228 | 0.642
x1 = 0.0349 | 0.673
x1 = 0.0584 | 0.726
x1 = 0.0861 | 0.792
x1 = 0.1164 | 0.875
x1 = 0.1595 | 0.994
x1 = 0.2094 | 1.132
x1 = 0.3042 | 1.414
x1 = 0.3316 | 1.499
x1 = 0.3593 | 1.576
x1 = 0.3994 | 1.703
x1 = 0.4379 | 1.815
x1 = 0.477 | 1.945
x1 = 0.5477 | 2.159
x1 = 0.6174 | 2.382
x1 = 0.6892 | 2.606
x1 = 0.7492 | 2.781
x1 = 0.7839 | 2.888
x1 = 0.8643 | 3.113
x1 = 0.9142 | 3.237
x1 = 0.949 | 3.324
x1 = 0.9732 | 3.369

COCCOCCOCCOCCOC + CCCCO
viscosity [mPa·s], 101 kPa
Details | 298.15 K | 303.15 K | 308.15 K
x2 = 0.1013 | – | – | 2.525
x2 = 0.7991 | 2.165 | 1.945 | –

N#CCCCCC#N + CCCCOC(C)=O
303.15 K, 101.33 kPa
Details | viscosity [mPa·s]
x1 = 0.0984 | 0.7145
x1 = 0.3003 | 1.052
x1 = 0.3857 | 1.281
x1 = 0.4963 | 1.663
x1 = 0.5929 | 2.082
x1 = 0.6974 | 2.631
x1 = 0.8455 | 3.61

Clc1cccc2ccccc12 + CCCCCCO
viscosity [mPa·s], 101.33 kPa
Details | x1 = 0.1047 | x1 = 0.2004 | x1 = 0.3023 | x1 = 0.3992 | x1 = 0.5019 | x1 = 0.6012 | x1 = 0.6993 | x1 = 0.8002 | x1 = 0.9013
298.15 K | 3.951 | 3.68 | 3.366 | 3.133 | 2.903 | 2.781 | 2.706 | 2.638 | 2.647
303.15 K | 3.335 | 3.105 | 2.858 | 2.67 | 2.506 | 2.455 | 2.44 | 2.304 | 2.337
308.15 K | 2.608 | 2.423 | 2.248 | 2.084 | 1.971 | 1.951 | 1.942 | 1.969 | 2.066

CC(O)C(=O)O (centres undefined) + C[C@H](N)C(=O)O
101 kPa, x2 = 0.5
Details | viscosity [mPa·s]
298.15 K | 23710
318.15 K | 3481

Clc1ccccc1 + COC(C)(C)C
viscosity [mPa·s], 101.33 kPa
Details | x2 = 0.0948 | x2 = 0.1898 | x2 = 0.2929 | x2 = 0.3832 | x2 = 0.4974 | x2 = 0.6209 | x2 = 0.7014 | x2 = 0.8089 | x2 = 0.9102
293.15 K | 0.7752 | 0.7379 | 0.6754 | 0.6443 | 0.5825 | 0.5368 | 0.4905 | 0.456 | 0.4191
298.15 K | 0.7335 | 0.6981 | 0.6506 | 0.6036 | 0.5697 | 0.5019 | 0.4658 | 0.4246 | 0.3945

Clc1ccccc1 + CC#N
viscosity [mPa·s], 101 kPa
Details | 298.15 K | 303.15 K | 308.15 K
x1 = 0.1038 | – | – | 0.352
x1 = 0.2009 | – | – | 0.3871
x1 = 0.3059 | – | – | 0.4245
x1 = 0.3949 | – | – | 0.4591
x1 = 0.4943 | – | – | 0.4944
x1 = 0.5946 | – | – | 0.5309
x1 = 0.6984 | – | – | 0.5671
x1 = 0.7956 | – | – | 0.6032
x1 = 0.8961 | – | – | 0.6352
x2 = 0.082 | 0.728 | 0.65 | –
x2 = 0.1809 | 0.681 | 0.609 | –
x2 = 0.267 | 0.642 | 0.577 | –
x2 = 0.3853 | 0.587 | 0.529 | –
x2 = 0.506 | 0.539 | 0.484 | –
x2 = 0.5957 | 0.501 | 0.459 | –
x2 = 0.6925 | 0.46 | 0.418 | –
x2 = 0.8175 | 0.406 | 0.373 | –
x2 = 0.9171 | 0.367 | 0.337 | –

COC(C)(C)C + CCC(C)O
298.15 K, 101 kPa
Details | viscosity [mPa·s]
x1 = 0.0999 | 2.16
x1 = 0.1992 | 1.57
x1 = 0.2992 | 1.16
x1 = 0.3976 | 0.91
x1 = 0.503 | 0.725
x1 = 0.6017 | 0.609
x1 = 0.6989 | 0.518
x1 = 0.7986 | 0.443
x1 = 0.8979 | 0.384
